Key:
OVX rats [1] = test: OVX rat model on osteoporosis: serum calcium; format: in vivo; set-up: key to Effect on serum calcium vs 1,25D3: <: less effect than the reference dose of 1,25D3 (0.25 ug/kg); <=: less or the same effect as the reference dose of 1,25D3 (0.25 ug/kg); =: same effect as the reference dose of 1,25D3 (0.25 ug/kg); =>: same or better effect as the reference dose of 1,25D3 (0.25 ug/kg); >: better effect than the reference dose of 1,25D3 (0.25 ug/kg); conditions: for Effect on serum calcium vs 1,25D3 / Effect on serum calcium vs Ovx contr: oral 28 days
Text: (§1) Pharmacological Methods—OVX Rat Model on Osteoporosis
(§2) To study bone anabolic properties and the effects of the vitamin D analogues of the present invention in preventing or treating demineralisation of the skeleton in vivo, a 4 weeks OVX rat model was used:
(§3) An ovariectomized rat model (OVX model), orally dosed for 28 days is useful for screening of vitamin D analogues. In this model ovariectomy produces alterations in the cancellous network identical to those seen in the human skeleton during ageing and the menopause. Besides this the model and the following analyses can be performed under very standardised conditions. 1α,25(OH)2D3 is used as a reference compound.
(§4) Female Sprague Dawley rats weighing approximately 130 g (40–45 days old) were purchased from MB, Ejby, Denmark. The animals were fed a commercial diet and allowed free access to food and drinking water. The animals were split into groups receiving differential treatment.
(§5) The animals were anaesthetised and ovariectomized through a dorsal incision.
(§6) Treatment of OVX animals was started 2 weeks after ovariectomy.
(§7) The animals were dosed orally for 28 days. The oral dosage was by gavage 0.1 ml/100 g bodyweight. The bodyweight of each animal was recorded every day prior to oral dosing. On day 7, 14, 21 and 28 the animals were housed separately for 24 hours in metabolic cages for collection of urine. Urine was frozen at −20° C. for later calcium measurement.
At day 28 the animals were anaesthetised and 2 ml of blood was obtained either by heart puncture or from the orbital vein, after this the animals were euthanized by CO2. The serum fraction was then removed and frozen at −20° C. for later measurement of calcium, phosphorous and creatinine.
(§8) Effect of Compound 145 compared to the reference dose of 1,25(OH)2D3 (1,25D3) (0.25 μg/kg) and compared to the OVX control group (shown in %) are shown in Tables 1 to 4.

OVX rats [2] = test: OVX rat model on osteoporosis: biomechanical test of bone strength; format: in vivo; set-up: key to Effect on bone strength, Femor. Meta., vs 1,25D3 / Effect on bone strength, L3, vs 1,25D3 / Effect on bone strength, Femor. Dia., vs 1,25D3: <: less effect than the reference dose of 1,25D3 (0.25 ug/kg); <=: less or the same effect as the reference dose of 1,25D3 (0.25 ug/kg); =: same effect as the reference dose of 1,25D3 (0.25 ug/kg); =>: same or better effect as the reference dose of 1,25D3 (0.25 ug/kg); >: better effect than the reference dose of 1,25D3 (0.25 ug/kg); conditions: oral 28 days
Method: FIG. 2 is a graphic illustration of the biomechanical test of the lumbal vertebrae, L3. The vertebral body cylinder were tested along the proximal-distal axis in a materials testing machine (Alwetron TCT 5, Lorentzen and Wettre, Stockholm, Sweden) at a constant deformation rate of 2 mm/min. During compression, load-deformation curves were recorded and stored on a PC (ProLinea 4/33, Compaq, USA). Fmax is the maximum point on the load deforming curve.
The rats were treated according to the OVX rat model described herein, and wherein the animal groups received treatment according to the same scheme as for FIG. 1. A statistical analysis is shown in the graphic illustration, cf. description for FIG. 1.
as §1, §2, §3, §4, §5, §6, §7
Left and right femur, left and right tibia, lumbal vertebrae 3 and 4 (L3 and L4) were removed and cleaned for all soft- and connecting tissue. Left femur, left and right tibia and L4 were dried in an oven at 50–60° C. for at least 24 hours and immediately hereafter weighed. The bones were burned in an oven at 800° C. for 4 hours, dissolved in 1N HCl, and analysed for calcium content in a Hitachi 911 autoanalyser. Right femur and L3 were kept in 0.9% NaCl and frozen at −20° C. for later biomechanical testing performed by Jesper Skovhus Thomsen and Lis Mosekilde at Aarhus University, measuring various biomechanical parameters.
as §8

How did the “Effect on serum calcium vs 1,25D3” value (OVX rats [1]; 1 μg/kg, MTR/16) turn out when `C=C1C(=CC=C2CCCC3(C)C2CCC3C(C)CSc2ccc(C(C)(C)O)cc2)CC(O)CC1O` [Compound 145, 1(S),3(R)-Dihydroxy-20(R)-(4-((1-hydroxy-1-methyl)ethyl)phenylthiomethyl)-9,10-seco-pregna-5(Z),7(E),10(19)-triene] was run?
The value was “No”.

And the “Effect on serum calcium vs Ovx contr” value (OVX rats [1]; 1 μg/kg, MTR/16)?
Its value is 0%.

And the “Effect on serum calcium vs 1,25D3” value (OVX rats [1]; 10 μg/kg, MTR/16)?
The value was “No”.

And the “Effect on serum calcium vs Ovx contr” value (OVX rats [1]; 10 μg/kg, MTR/16)?
Its value is 3%.

And the “Effect on serum calcium vs 1,25D3” value (OVX rats [1]; 10 μg/kg, MTR/23)?
Its value is “<”.

What about the “Effect on serum calcium vs Ovx contr” value (OVX rats [1]; 10 μg/kg, MTR/23) of the same compound?
Its value is 6%.

What about the “Effect on serum calcium vs 1,25D3” value (OVX rats [1]; 25 μg/kg, MTR/27) of the same compound?
Its value is “<”.

What about the “Effect on serum calcium vs Ovx contr” value (OVX rats [1]; 25 μg/kg, MTR/27) of the same compound?
Its value is 11%.

What about the “Effect on serum calcium vs 1,25D3” value (OVX rats [1]; 50 μg/kg, MTR/23) of the same compound?
The value was “No”.

What about the “Effect on serum calcium vs Ovx contr” value (OVX rats [1]; 50 μg/kg, MTR/23) of the same compound?
The value was 2%.

What about the “Effect on serum calcium vs 1,25D3” value (OVX rats [1]; 50 μg/kg, MTR/27) of the same compound?
Its value is “=”.

What about the “Effect on serum calcium vs Ovx contr” value (OVX rats [1]; 50 μg/kg, MTR/27) of the same compound?
Its value is 18%.

And the “Effect on serum calcium vs 1,25D3” value (OVX rats [1]; 75 μg/kg, MTR/27)?
The value was “=”.

And the “Effect on serum calcium vs Ovx contr” value (OVX rats [1]; 75 μg/kg, MTR/27)?
The value was 20%.

What about the “Effect on serum calcium vs 1,25D3” value (OVX rats [1]; 100 μg/kg, MTR/23) of the same compound?
Its value is “No”.

And the “Effect on serum calcium vs Ovx contr” value (OVX rats [1]; 100 μg/kg, MTR/23)?
Its value is −5%.

What about the “calcaemic effect (adverse effect) compared to 1,25D3” value (OVX rats [1]; summary of Tables 1 to 4) of the same compound?
Its value is “reduced”.

What about the “Effect on bone strength, Femor. Dia., vs 1,25D3” value (shortened to “Effect … Femor. Dia., vs 1,25D3”) (OVX rats [2]; 1 μg/kg, MTR/16) of the same compound?
Its value is “<=”.

And the “Effect on bone strength, Femor. Meta., vs 1,25D3” value (“Effect … Femor. Meta., vs 1,25D3” below) (OVX rats [2]; 1 μg/kg, MTR/16)?
The value was “<”.

And the “Effect on bone strength, L3, vs 1,25D3” value (OVX rats [2]; 1 μg/kg, MTR/16)?
The value was “<”.

And the “Effect … Femor. Dia., vs 1,25D3” value (OVX rats [2]; 10 μg/kg, MTR/16)?
Its value is “=”.

What about the “Effect … Femor. Meta., vs 1,25D3” value (OVX rats [2]; 10 μg/kg, MTR/16) of the same compound?
The value was “=”.

What about the “Effect on bone strength, L3, vs 1,25D3” value (OVX rats [2]; 10 μg/kg, MTR/16) of the same compound?
Its value is “>”.

And the “Effect … Femor. Dia., vs 1,25D3” value (OVX rats [2]; 10 μg/kg, MTR/23)?
The value was “<=”.

What about the “Effect on bone strength, Femor. Dia., vs Ovx contr” value (shortened to “Effect … Femor. Dia., vs Ovx contr”) (OVX rats [2]; 10 μg/kg, MTR/23) of the same compound?
The value was −5%.

And the “Effect … Femor. Meta., vs 1,25D3” value (OVX rats [2]; 10 μg/kg, MTR/23)?
Its value is “<”.

What about the “Effect on bone strength, Femor. Meta., vs Ovx contr” value (“Effect … Femor. Meta., vs Ovx contr” for short) (OVX rats [2]; 10 μg/kg, MTR/23) of the same compound?
Its value is 6%.

And the “Effect on bone strength, L3, vs 1,25D3” value (OVX rats [2]; 10 μg/kg, MTR/23)?
The value was “=”.

What about the “Effect on bone strength, L3, vs Ovx contr” value (“Effect … L3, vs Ovx contr” for short) (OVX rats [2]; 10 μg/kg, MTR/23) of the same compound?
Its value is 23%.

And the “Effect … Femor. Dia., vs 1,25D3” value (OVX rats [2]; 25 μg/kg, MTR/27)?
The value was “>”.

What about the “Effect … Femor. Dia., vs Ovx contr” value (OVX rats [2]; 25 μg/kg, MTR/27) of the same compound?
The value was 9%.

What about the “Effect … Femor. Meta., vs 1,25D3” value (OVX rats [2]; 25 μg/kg, MTR/27) of the same compound?
The value was “>”.

What about the “Effect … Femor. Meta., vs Ovx contr” value (OVX rats [2]; 25 μg/kg, MTR/27) of the same compound?
Its value is 39%.

What about the “Effect on bone strength, L3, vs 1,25D3” value (OVX rats [2]; 25 μg/kg, MTR/27) of the same compound?
The value was “<=”.

What about the “Effect … L3, vs Ovx contr” value (OVX rats [2]; 25 μg/kg, MTR/27) of the same compound?
Its value is 27%.

What about the “Effect … Femor. Dia., vs 1,25D3” value (OVX rats [2]; 50 μg/kg, MTR/23) of the same compound?
The value was “=”.

What about the “Effect … Femor. Dia., vs Ovx contr” value (OVX rats [2]; 50 μg/kg, MTR/23) of the same compound?
The value was −1%.

And the “Effect … Femor. Meta., vs 1,25D3” value (OVX rats [2]; 50 μg/kg, MTR/23)?
Its value is “>”.

And the “Effect … Femor. Meta., vs Ovx contr” value (OVX rats [2]; 50 μg/kg, MTR/23)?
The value was 43%.

And the “Effect on bone strength, L3, vs 1,25D3” value (OVX rats [2]; 50 μg/kg, MTR/23)?
The value was “>”.

What about the “Effect … L3, vs Ovx contr” value (OVX rats [2]; 50 μg/kg, MTR/23) of the same compound?
The value was 45%.

What about the “Effect … Femor. Dia., vs 1,25D3” value (OVX rats [2]; 50 μg/kg, MTR/27) of the same compound?
Its value is “>”.

What about the “Effect … Femor. Dia., vs Ovx contr” value (OVX rats [2]; 50 μg/kg, MTR/27) of the same compound?
Its value is 5%.

And the “Effect … Femor. Meta., vs 1,25D3” value (OVX rats [2]; 50 μg/kg, MTR/27)?
The value was “>”.

What about the “Effect … Femor. Meta., vs Ovx contr” value (OVX rats [2]; 50 μg/kg, MTR/27) of the same compound?
Its value is 31%.

And the “Effect on bone strength, L3, vs 1,25D3” value (OVX rats [2]; 50 μg/kg, MTR/27)?
The value was “<”.

And the “Effect … L3, vs Ovx contr” value (OVX rats [2]; 50 μg/kg, MTR/27)?
Its value is 22%.

And the “Effect … Femor. Dia., vs 1,25D3” value (OVX rats [2]; 75 μg/kg, MTR/27)?
Its value is “>”.

And the “Effect … Femor. Dia., vs Ovx contr” value (OVX rats [2]; 75 μg/kg, MTR/27)?
The value was 4%.

What about the “Effect … Femor. Meta., vs 1,25D3” value (OVX rats [2]; 75 μg/kg, MTR/27) of the same compound?
The value was “>>”.

What about the “Effect … Femor. Meta., vs Ovx contr” value (OVX rats [2]; 75 μg/kg, MTR/27) of the same compound?
Its value is 50%.

And the “Effect on bone strength, L3, vs 1,25D3” value (OVX rats [2]; 75 μg/kg, MTR/27)?
Its value is “=”.

What about the “Effect … L3, vs Ovx contr” value (OVX rats [2]; 75 μg/kg, MTR/27) of the same compound?
Its value is 38%.

What about the “Effect … Femor. Dia., vs 1,25D3” value (OVX rats [2]; 100 μg/kg, MTR/23) of the same compound?
Its value is “=”.

And the “Effect … Femor. Dia., vs Ovx contr” value (OVX rats [2]; 100 μg/kg, MTR/23)?
The value was −3%.

And the “Effect … Femor. Meta., vs 1,25D3” value (OVX rats [2]; 100 μg/kg, MTR/23)?
The value was “=”.

What about the “Effect … Femor. Meta., vs Ovx contr” value (OVX rats [2]; 100 μg/kg, MTR/23) of the same compound?
The value was 21%.

And the “Effect on bone strength, L3, vs 1,25D3” value (OVX rats [2]; 100 μg/kg, MTR/23)?
Its value is “>”.

And the “Effect … L3, vs Ovx contr” value (OVX rats [2]; 100 μg/kg, MTR/23)?
Its value is 37%.

Source: US7071178B2, “Use of vitamin D-derivatives in the treatment of osteoporosis and related bone disorders, as well as novel vitamin D3-derivatives” (Leo Pharmaceutical Products, Ltd., priority 2000, dated 2006)
